tested on: NCI-H1703 cells; assay: GLS Cell Proliferation Assay (NCI-H1703); assay type: cell-based, human; conditions: Homo sapiens, 120 h; NCI-H1703 cells, 5 days incubation; geometric mean where repeated; read-out: Assay c) GLS Cell Proliferation Assay
Text: The following assays were used to measure the effects of the compounds of the present invention: a) GLS Enzyme Potency Assay; b) GLS Cell Potency Assay; c) GLS Cell Proliferation Assay; and d) Mouse Xenograft Model. During the description of the assays, generally: • i. The following abbreviations have been used: CO2=Carbon dioxide; DMEM=Dulbecco's Modified Eagle Medium; DMSO=Dimethyl sulphoxide; EDTA=Ethylenediaminetetraacetic acid; EGTA=Ethylene glycol tetraacetic acid; FCS=Foetal calf serum; h=Hour(s); NBS=Non-binding surface; SDS=Sodium dodecyl sulphate; r.t.=room temperature; TRIS=Tris(Hydroxymethyl)aminomethane. • ii. […]
The ability of compounds to inhibit cell growth was measured using a 384 well plate NCI-H1703 cell proliferation assay. NCI-H1703 cells were grown in phenol red free RPMI1640, 10% FCS and 2 mM glutamine and seeded at a density of 750 cells per well in 40 μl of growth medium into clear-bottom 384 well assay plates (Corning product code 3712) and incubated for 24 h at 37° C., 5% CO2. […] DMSO concentration was maintained at 0.3% by back filling with DMSO solution. Plates were incubated for 5 days at 37° C., 5% CO2, Sytox Green and Saponin added to final concentration of 2 μM and 0.25% respectively and incubated for 6 h prior to analysis. Plates were read on an Acumen eX3 (TTP Labtech) using 488 nm excitation and FITC filter set (500-530 nm) for emission. IC50 values were calculated by curve fitting to max inhibition of day zero growth using GeneData software analysis.

In order of rising IC50:
1. CCO[C@H](C(=O)Nc1nnc(N[C@@H]2CCN(c3cccnn3)C2)s1)c1cccc(OC(F)F)c1 [Example 15(a), (2S)-2-[3-(Difluoromethoxy)phenyl]-2-ethoxy-N-[5-[[(3R)-1-pyridazin-3-ylpyrrolidin-3-yl]amino]-1,3,4-thiadiazol-2-yl]acetamide]  0.921 nM
2. CCO[C@H](C(=O)Nc1nnc(N[C@@H]2CCN(c3cccnn3)C2)s1)c1cccc(OC(F)(F)F)c1 [Example 16(a), (2S)-2-Ethoxy-N-[5-[[(3R)-1-pyridazin-3-ylpyrrolidin-3-yl]amino]-1,3,4-thiadiazol-2-yl]-2-[3-(trifluoromethoxy)phenyl]acetamide]  1.32 nM
3. [2H]C([2H])([2H])O[C@H](C(=O)Nc1nnc(N[C@@H]2CCN(c3cccnn3)C2)s1)c1ccccc1 [18(a), (2S)-2-phenyl-N-[5-[[(3R)-1-pyridazin-3-ylpyrrolidin-3-yl]amino]-1,3,4-thiadiazol-2-yl]-2-(trideuteriomethoxy)acetamide]  1.88 nM
4. [2H]C([2H])([2H])O[C@]([2H])(C(=O)Nc1nnc(N[C@@H]2CCN(c3cccnn3)C2)s1)c1ccccc1 [20(a), (2S)-2-deuterio-2-phenyl-N-[5-[[(3R)-1-pyridazin-3-ylpyrrolidin-3-yl]amino]-1,3,4-thiadiazol-2-yl]-2-(trideuteriomethoxy)acetamide]  1.94 nM
5. CCO[C@@H](C(=O)Nc1nnc(N[C@@H]2CCN(c3cccnn3)C2)s1)c1cccc(OC)c1 [30(b), (2R)-2-ethoxy-2-(3-methoxyphenyl)-N-[5-[[(3R)-1-pyridazin-3-ylpyrrolidin-3-yl]amino]-1,3,4-thiadiazol-2-yl]acetamide]  2.01 nM
6. CO[C@H](C(=O)Nc1nnc(N[C@@H]2CCN(c3cccnn3)C2)s1)c1cccc(OC(F)F)c1 [Example 7(a), (2S)-2-[3-(Difluoromethoxy)phenyl]-2-methoxy-N-[5-[[(3R)-1-pyridazin-3-ylpyrrolidin-3-yl]amino]-1,3,4-thiadiazol-2-yl]acetamide]  2.23 nM
7. CCO[C@@H](C(=O)Nc1nnc(N[C@@H]2CCN(c3cccnn3)C2)s1)c1cccc(OC(F)F)c1 [Example 15(b), (2R)-2-[3-(Difluoromethoxy)phenyl]-2-ethoxy-N-[5-[[(3R)-1-pyridazin-3-ylpyrrolidin-3-yl]amino]-1,3,4-thiadiazol-2-yl]acetamide]  2.47 nM
8. CO[C@H](C(=O)Nc1nnc(N[C@@H]2CCN(c3cncnn3)C2)s1)c1cccc(OC(F)F)c1 [23(a), (2S)-2-[3-(difluoromethoxy)phenyl]-2-methoxy-N-[5-[[(3R)-1-(1,2,4-triazin-6-yl)pyrrolidin-3-yl]amino]-1,3,4-thiadiazol-2-yl]acetamide]  4.63 nM
9. CO[C@H](C(=O)Nc1nnc(N[C@@H]2CCN(c3nccnn3)C2)s1)c1cccc(OC(F)(F)F)c1 [Example 8(a), (2S)-2-Methoxy-N-[5-[[(3R)-1-(1,2,4-triazin-3-yl)pyrrolidin-3-yl]amino]-1,3,4-thiadiazol-2-yl]-2-[3-(trifluoromethoxy)phenyl]acetamide]  5.04 nM
10. CCO[C@@H](C(=O)Nc1nnc(N[C@@H]2CCN(c3cccnn3)C2)s1)c1cccc(OC(F)(F)F)c1 [Example 16(b), (2R)-2-Ethoxy-N-[5-[[(3R)-1-pyridazin-3-ylpyrrolidin-3-yl]amino]-1,3,4-thiadiazol-2-yl]-2-[3-(trifluoromethoxy)phenyl]acetamide]  6.38 nM
11. CO[C@@H](C(=O)Nc1nnc(N[C@@H]2CCN(c3cccnn3)C2)s1)c1cccc(OC(F)F)c1 [Example 7(b), (2R)-2-[3-(Difluoromethoxy)phenyl]-2-methoxy-N-[5-[[(3R)-1-pyridazin-3-ylpyrrolidin-3-yl]amino]-1,3,4-thiadiazol-2-yl]acetamide]  6.94 nM
12. CCO[C@H](C(=O)Nc1nnc(N[C@@H]2CCN(c3cccnn3)C2)s1)c1ccc(OC)cc1 [28(a), (2S)-2-ethoxy-2-(4-methoxyphenyl)-N-[5-[[(3R)-1-pyridazin-3-ylpyrrolidin-3-yl]amino]-1,3,4-thiadiazol-2-yl]acetamide]  9.28 nM
13. CO[C@H](C(=O)Nc1nnc(N[C@@H]2CCN(c3cncnn3)C2)s1)c1cccc(OC(F)(F)F)c1 [22(a), (2S)-2-methoxy-N-[5-[[(3R)-1-(1,2,4-triazin-6-yl)pyrrolidin-3-yl]amino]-1,3,4-thiadiazol-2-yl]-2-[3-(trifluoromethoxy)phenyl]acetamide]  10.7 nM
14. CO[C@H](C(=O)Nc1nnc(N[C@@H]2CCN(c3cccnn3)C2)s1)c1ccc(F)cc1 [Example 12(a), (2S)-2-(4-Fluorophenyl)-2-methoxy-N-[5-[[(3R)-1-pyridazin-3-ylpyrrolidin-3-yl]amino]-1,3,4-thiadiazol-2-yl]acetamide]  13.5 nM
15. CO[C@@H](C(=O)Nc1nnc(N[C@@H]2CCN(c3cncnn3)C2)s1)c1cccc(OC(F)F)c1 [23(b), (2R)-2-[3-(difluoromethoxy)phenyl]-2-methoxy-N-[5-[[(3R)-1-(1,2,4-triazin-6-yl)pyrrolidin-3-yl]amino]-1,3,4-thiadiazol-2-yl]acetamide]  35.4 nM
16. CO[C@@H](C(=O)Nc1nnc(N[C@@H]2CCN(c3nccnn3)C2)s1)c1cccc(OC(F)(F)F)c1 [Example 8(b), (2R)-2-Methoxy-N-[5-[[(3R)-1-(1,2,4-triazin-3-yl)pyrrolidin-3-yl]amino]-1,3,4-thiadiazol-2-yl]-2-[3-(trifluoromethoxy)phenyl]acetamide]  36.8 nM
17. CO[C@H](C(=O)Nc1nnc(N[C@@H]2CCN(c3nccnn3)C2)s1)c1ccccc1 [Example 1(a), (2S)-2-Methoxy-2-phenyl-N-[5-[[(3R)-1-(1,2,4-triazin-3-yl)pyrrolidin-3-yl]amino]-1,3,4-thiadiazol-2-yl]acetamide]  53.5 nM
18. CCO[C@H](C(=O)Nc1nnc(N[C@@H]2CCN(c3cccnn3)C2)s1)c1cccc(OC)c1 [30(a), (2S)-2-ethoxy-2-(3-methoxyphenyl)-N-[5-[[(3R)-1-pyridazin-3-ylpyrrolidin-3-yl]amino]-1,3,4-thiadiazol-2-yl]acetamide]  71.6 nM
19. [2H]C([2H])([2H])O[C@@H](C(=O)Nc1nnc(N[C@@H]2CCN(c3cccnn3)C2)s1)c1ccccc1 [18(b), (2R)-2-phenyl-N-[5-[[(3R)-1-pyridazin-3-ylpyrrolidin-3-yl]amino]-1,3,4-thiadiazol-2-yl]-2-(trideuteriomethoxy)acetamide]  73 nM
20. COc1ccc([C@@H](OC)C(=O)Nc2nnc(N[C@@H]3CCN(c4nccnn4)C3)s2)cc1OC [26(b), (2R)-2-(3,4-dimethoxyphenyl)-2-methoxy-N-[5-[[(3R)-1-(1,2,4-triazin-3-yl)pyrrolidin-3-yl]amino]-1,3,4-thiadiazol-2-yl]acetamide]  101 nM
21. CO[C@@H](C(=O)Nc1nnc(N[C@@H]2CCN(c3nccnn3)C2)s1)c1ccc(F)cc1 [17(b), (2R)-2-(4-fluorophenyl)-2-methoxy-N-[5-[[(3R)-1-(1,2,4-triazin-3-yl)pyrrolidin-3-yl]amino]-1,3,4-thiadiazol-2-yl]acetamide]  120 nM
22. CCO[C@@H](C(=O)Nc1nnc(N[C@@H]2CCN(c3cccnn3)C2)s1)c1ccc(OC)cc1 [28(b), (2R)-2-ethoxy-2-(4-methoxyphenyl)-N-[5-[[(3R)-1-pyridazin-3-ylpyrrolidin-3-yl]amino]-1,3,4-thiadiazol-2-yl]acetamide]  151 nM
23. [2H]C([2H])([2H])O[C@@]([2H])(C(=O)Nc1nnc(N[C@@H]2CCN(c3cccnn3)C2)s1)c1ccccc1 [20(b), (2R)-2-deuterio-2-phenyl-N-[5-[[(3R)-1-pyridazin-3-ylpyrrolidin-3-yl]amino]-1,3,4-thiadiazol-2-yl]-2-(trideuteriomethoxy)acetamide]  166 nM
24. CO[C@@H](C(=O)Nc1nnc(N[C@@H]2CCN(c3cccnn3)C2)s1)c1ccccc1 [Example 2(b), (2R)-2-Methoxy-2-phenyl-N-[5-[[(3R)-1-pyridazin-3-ylpyrrolidin-3-yl]amino]-1,3,4-thiadiazol-2-yl]acetamide]  179 nM
25. CO[C@@H](C(=O)Nc1nnc(N[C@@H]2CCN(c3cccnn3)C2)s1)c1ccc(F)cc1 [Example 12(b), (2R)-2-(4-Fluorophenyl)-2-methoxy-N-[5-[[(3R)-1-pyridazin-3-ylpyrrolidin-3-yl]amino]-1,3,4-thiadiazol-2-yl]acetamide]  429 nM
26. COc1ccc([C@H](OC)C(=O)Nc2nnc(N[C@@H]3CCN(c4nccnn4)C3)s2)cc1OC [26(a), (2S)-2-(3,4-dimethoxyphenyl)-2-methoxy-N-[5-[[(3R)-1-(1,2,4-triazin-3-yl)pyrrolidin-3-yl]amino]-1,3,4-thiadiazol-2-yl]acetamide]  2050 nM
27. CO[C@@H](C(=O)Nc1nnc(N[C@@H]2CCN(c3nccnn3)C2)s1)c1ccccc1 [Example 1(b), (2R)-2-Methoxy-2-phenyl-N-[5-[[(3R)-1-(1,2,4-triazin-3-yl)pyrrolidin-3-yl]amino]-1,3,4-thiadiazol-2-yl]acetamide]  2240 nM
28. CO[C@H](C(=O)Nc1nnc(N[C@@H]2CCN(c3nccnn3)C2)s1)c1ccc(F)cc1 [17(a), (2S)-2-(4-fluorophenyl)-2-methoxy-N-[5-[[(3R)-1-(1,2,4-triazin-3-yl)pyrrolidin-3-yl]amino]-1,3,4-thiadiazol-2-yl]acetamide]  3570 nM

— US10040788B2, “1,3,4-thiadiazole compounds and their use in treating cancer” (AstraZeneca AB, priority 2014, dated 2018)
